Data on nine molecules can be found in patent US20080269238A1, “Thiazolopyrimidine Derivative” (TAKEDA PHARMACEUTICAL COMPANY LIMITED, priority 2004, published 2008).

The term inhibition denotes the share of the control response that was lost under treatment.

For one experiment, the target named is T1, HER2 kinase (intracellular domain of HER2) (Homo sapiens, UniProt P04626).
T1 construct: FLAG (N); made in house; host or cells: SF-21 insect cells infected with recombinant baculovirus BAC-HER2
T1 sequence (P04626 676-1255 limits assumed): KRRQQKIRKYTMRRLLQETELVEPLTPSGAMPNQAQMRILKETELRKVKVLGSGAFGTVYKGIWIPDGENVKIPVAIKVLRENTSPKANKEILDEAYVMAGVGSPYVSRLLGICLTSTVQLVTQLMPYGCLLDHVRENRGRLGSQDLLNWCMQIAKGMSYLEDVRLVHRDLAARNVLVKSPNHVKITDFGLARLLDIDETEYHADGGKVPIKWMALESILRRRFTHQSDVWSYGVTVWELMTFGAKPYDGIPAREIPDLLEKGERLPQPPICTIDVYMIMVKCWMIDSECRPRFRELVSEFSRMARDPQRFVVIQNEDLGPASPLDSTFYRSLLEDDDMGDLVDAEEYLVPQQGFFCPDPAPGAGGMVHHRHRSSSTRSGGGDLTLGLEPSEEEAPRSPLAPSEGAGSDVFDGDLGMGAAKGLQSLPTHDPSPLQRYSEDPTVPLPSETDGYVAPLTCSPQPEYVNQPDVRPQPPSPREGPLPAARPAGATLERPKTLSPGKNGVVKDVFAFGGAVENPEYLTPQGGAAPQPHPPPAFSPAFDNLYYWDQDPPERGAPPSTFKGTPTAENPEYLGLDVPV
Briefly: Measurement of inhibition activity of HER2 kinase. The experiment is classed as biochemical. To be noted: test compound 1.0 μM, poly-Glu:Tyr(4:1) substrate, [γ-32P]ATP, 25° C. 10 minutes, read-out: Inhibition rate (%) in 1.0 μM. As to the method: Cloning of Human HER2 Gene was performed with RT-PCR templating total RNA prepared from MCF 7 cell. To attach Flag tag in N-terminal of HER2, a primer used in RT-PCR was manufactured by adding flag peptide coding sequence and restricted enzyme recognition sequence to the base sequence (2176-3918 in Genbank Accession M11730) which codes a part of intracellular domain of the protein using an information of base sequence of HER2 Gene (Genbank Accession M11730). Base sequence of the primer was shown as below.
(§1) RT reaction was performed using a SuperScript First-Strand Synthesis system for RT-PCR (Invitrogen), and PCR reaction was performed using a KOD-plus kit (TOYOBO). The obtained PCR product was subjected to electrophoresis on agarose gel (1%), and digested with Sal I and Sph I after collecting a DNA fragment amplified by PCR from the gel. The DNA treated with restricted enzymes was subjected to electrophoresis on agarose gel (1%), the obtained DNA fragment was collected, and ligated to a plasmid pFASTBAC1 (Invitrogen) digested with restricted enzymes Sal I and Sph I, resulting that expression plasmid pFB-HER2 was manufactured. Base sequence of inserted fragment was confirmed. As a result, the base sequence of inserted fragment was corresponded with base sequence of the intracellular domain of the HER2 (pp. 2176-3918 in Genbank Accession M11730). Further, a recombinant baculovirus BAC-HER2 was prepared using BAC-TO-BAC Baculovirus Expression System (Invitrogen).
A SF-21 cell was plated with 1×10^6 cells/ml in a Sf-900II SFM medium (Invitrogen) containing 10% of fetal bovine serum (Trace), 50 mg/L of Gentamicin (Invitrogen) and 0.1% of Pluronic F-68 (Invitrogen), and cultured with shaking at 27° C. at 100 rpm using a 2 L meyer. After culturing for 24 hours, 13.4 ml of a recombinant baculovirus BAC-HER2 was added thereto, and further cultured for 3 days. The cultured solution was centrifuged at 2,000 rpm for 5 minutes, and a virus-infected cell was obtained. The cell was washed with phosphate buffered saline (Invitrogen), centrifuged under the same condition, and preserved at −80° C. The freezing preserved cell was melted on ice, suspended with 30 ml of a buffer A (50 mM of tris-buffer containing 20% of glycerol and 0.15M of NaCl (pH 7.4)) to which was added Complete Protease Inhibitor (Behringer), and crushed at 20,000 rpm for 30 seconds three times using Polytron homogenizer (Kinematica). The crushed solution was clarified by centrifugation at 40,000 rpm for 30 minutes, and filtered using a 45 μm filter. The filtrate was passed through a column filled with Anti-FLAG M2 Affinity Gel (Sigma Corp.) in a flow rate of about 0.5 mL/min. The column was washed with a buffer A, and eluted with a buffer A containing 100 μg/mL of FLAG peptide. The eluted solution was concentrated by Vivaspin 20 of MWCO (molecular weight of cut-off) 30K (Vivascience). This concentrated solution was gel-filtrated and purified by a Hi Load Superdex 200 pg 16/60 (Amersham Biosciences) equilibrated with the buffer A. The fraction containing the intracellular domain of HER2 was collected, and glycerol was added thereto to be a 50% of terminal concentration, and then freezing preserved at −80° C.
The test compound dissolved in dimethylsulfoxide (DMSO) was diluted with buffer for measuring the kinase reaction (50 mM of Tris-HCl (pH 7.5), 5 mM of MgCl2, 5 mM MnCl2, 2 mM of dithiothreitol, 0.01% of Tween-20). […]
For the molecule `OCCNCc1ccc(-c2nc3c(Nc4ccc(OCc5cccc(F)c5)c(Cl)c4)ncnc3s2)cc1` [Example 26, 2-({4-[7-({3-chloro-4-[(3-fluorobenzyl)oxy]phenyl}amino)[1,3]thiazolo[5,4-d]pyrimidin-2-yl]benzyl}amino)ethanol], the inhibition at 1 µM amounted to 92%.
On the same count and under the same terms, in the case of `COCCNCc1ccc(-c2nc3c(Nc4ccc(F)c(Cl)c4)ncnc3s2)cc1` [Example 39, N-(3-chloro-4-fluorophenyl)-2-(4-{[(2-methoxyethyl)amino]methyl}phenyl) [1,3]thiazolo[5,4-d]pyrimidin-7-amine] it was 96%.
Regarding `COCCNCCc1ccc(-c2nc3c(Nc4ccc(Oc5ccc(C)nc5)c(C)c4)ncnc3s2)cc1` [Example 41, 2-(4-{2-[(2-methoxyethyl)amino]ethyl}phenyl)-N-{3-methyl-4-[(6-methylpyridin-3-yl)oxy]phenyl}[1,3]thiazolo[5,4-d]pyrimidin-7-amine], the inhibition at 1 µM was determined as 89%.
Still for that read-out and setting: in the case of `OCCNCc1ccc(-c2nc3c(Nc4ccc(Oc5cccc(C(F)(F)F)c5)c(Cl)c4)ncnc3s2)cc1` [Example 58, 2-({4-[7-({3-chloro-4-[3-(trifluoromethyl)phenoxy]phenyl}amino)[1,3]thiazolo[5,4-d]pyrimidin-2-yl]benzyl}amino)ethanol] it was 90%; in that of `O=C(CO)NCc1ccc(-c2nc3c(Nc4ccc(OCc5ccsc5)c(Cl)c4)ncnc3s2)cc1` [Example 80, N-[4-(7-{[3-chloro-4-(3-thienylmethoxy)phenyl]amino}[1,3]thiazolo[5,-d]pyrimidin-2-yl)benzyl]-2-hydroxyacetamide], 87%.

The next experiment deals with T2, EGF receptor kinase (intracellular domain of EGF receptor) (Homo sapiens, UniProt P00533).
T2 construct: FLAG (N); made in house; host or cells: SF-21 insect cells infected with recombinant baculovirus BAC-EGFR
T2 sequence (P00533 669-1210 limits assumed): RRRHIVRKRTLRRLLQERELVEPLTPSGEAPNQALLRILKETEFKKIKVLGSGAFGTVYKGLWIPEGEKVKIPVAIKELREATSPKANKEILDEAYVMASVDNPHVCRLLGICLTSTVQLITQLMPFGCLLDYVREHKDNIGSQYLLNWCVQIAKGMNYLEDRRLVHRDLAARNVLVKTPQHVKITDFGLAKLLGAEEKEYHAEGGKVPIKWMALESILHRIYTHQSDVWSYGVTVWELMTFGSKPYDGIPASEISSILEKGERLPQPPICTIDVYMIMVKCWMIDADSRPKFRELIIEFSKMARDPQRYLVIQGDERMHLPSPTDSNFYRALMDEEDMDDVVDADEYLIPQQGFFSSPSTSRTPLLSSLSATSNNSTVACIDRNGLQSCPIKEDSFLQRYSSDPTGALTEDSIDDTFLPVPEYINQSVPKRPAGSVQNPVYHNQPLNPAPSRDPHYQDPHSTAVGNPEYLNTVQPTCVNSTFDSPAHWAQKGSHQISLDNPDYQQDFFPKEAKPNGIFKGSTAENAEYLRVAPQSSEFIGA
Briefly: Measurement of inhibition activity of EGF receptor kinase. The experiment is classed as biochemical. To be noted: EGFR kinase; test compound 1.0 μM; biotinyl-poly-Glu:Tyr (4:1), α-screen assay, 25° C. 10 minutes; read-out: Inhibition rate (%) in 1.0 μM. As to the method:
Cloning of Human EGF Receptor Gene was performed with RT-PCR templating total RNA prepared from A431 cell. To attach Flag tag in N-terminal of EGF, a primer used in RT-PCR was manufactured by adding flag peptide coding sequence and restricted enzyme recognition sequence to the base sequence (2182-3810 in Genbank Accession XM—167493) which codes a part of intracellular domain of the protein using an information of base sequence of EGF receptor Gene (Genbank Accession XM—167493). The Base sequence of the primer was shown as below.
as §1, with “and” for “resulting that”, “EGFR” for “the HER2”, “2182-3810” for “2176-3918”, “XM—167493).” for “M11730).”, “BAC-EGFR” for “BAC-HER2”
A SF-21 cell was plated with 1×10^6 cells/ml in a Sf-900II SFM medium (Invitrogen) containing 10% of a fetal bovine serum (Trace), 50 mg/L of Gentamicin (Invitrogen) and 0.1% of Pluronic F-68 (Invitrogen), and cultured with shaking at 27° C. at 100 rpm using a 2 L meyer. After culturing for 24 hours, 13.4 mL of a recombinant baculovirus EGFR was added thereto, and further cultured for 3 days. The cultured solution was centrifuged in 2,000 rpm for 5 minutes, and a virus-infected cell was obtained. The cell was washed with phosphate buffered saline (Invitrogen), centrifuged under the same condition, and then preserved at −80° C. The freezing preserved cell was melted on ice, suspended with 30 mL of a buffer A (50 mM of tris-buffer containing 20% of glycerol and 0.15M of NaCl (pH 7.4)) to which was added Complete Protease Inhibitor (Behringer), and crushed at 20,000 rpm for 30 seconds three times using Polytron homogenizer (Kinematica). The crushed solution was clarified by centrifugation at 40,000 rpm for 30 minutes, and filtered using a 45 μm filter. The filtrate was passed through a column which is filled with Anti-FLAG M2 Affinity Gel (Sigma Corp.) in a flow rate of about 0.5 mL/min. The column was washed with a buffer A, and eluted with a buffer containing 100 μg/ml of FLAG peptide. […]
For the molecule `COCCNC(=O)c1nc2c(Nc3ccc(OCc4cccc(F)c4)c(Cl)c3)ncnc2s1` [Example 20, 7-({3-chloro-4-[(3-fluorobenzyl)oxy]phenyl}amino)-N-(2-methoxyethyl) [1,3]thiazolo[5,4-d]pyrimidine-2-carboxamide], the inhibition at 1 µM turned out to be 91%.
Same read-out and setting: next, `CS(=O)(=O)CCNCCNC(=O)c1nc2c(Nc3ccc(OCc4cccc(F)c4)c(Cl)c3)ncnc2s1` [Example 25, 7-({3-chloro-4-[(3-fluorobenzyl)oxy]phenyl}amino)-N-(2-{[2-(methylsulfonyl)ethyl]amino}ethyl)[1,3]thiazolo[5,4-d]pyrimidine-2-carboxamide]: 88%.
For the molecule `CC(=O)NCCCCCc1nc2c(Nc3ccc(OCc4cccc(F)c4)c(Cl)c3)ncnc2s1` [Example 46, N-{5-[7-({3-chloro-4-[(3-fluorobenzyl)oxy]phenyl}amino) [1,3]thiazolo[5,4-d]pyrimidin-2-yl]pentyl}acetamide], the inhibition at 1 µM amounted to 81%.
As for `Fc1cccc(COc2ccc(Nc3ncnc4sc(C5CC5)nc34)cc2Cl)c1` [Example 52, N-{3-chloro-4-[(3-fluorobenzyl)oxy]phenyl}-2-cyclopropyl[1,3]thiazolo[5,4-d]pyrimidin-7-amine], the inhibition at 1 µM is 81%.
